Measurements published in patent EP0769956B1, “USE OF A GnRH ANTAGONIST FOR THE PREPARATION OF A MEDICAMENT FOR THE TREATMENT OF GONADAL-STEROID CONDITIONS” (THE MEDICAL COLLEGE OF HAMPTON ROADS, priority 1994, dated 2000).
“And” between values parts separate entries of the source, which are not always exact repeats. Identical values can stand only once.

Assays:
[1] = tested on: ovarian estrogen secretion; test: Part I dose-finding study: RIA of serum estradiol during 14 days of daily im treatment; assay type: in vivo, cynomolgus monkeys; settings: 0.1 mg/kg im daily; some individual primates, predominately
Method: (§1) Eleven adult female cynomolgus monkeys having regular and presumably ovulatory menstrual cycles were entered into the study. Body weights were determined monthly. Menstrual bleeding and spotting were recorded daily by visual inspection of external genitalia and insertion of vaginal swabs using a saline moistened cotton-tipped applicator, respectively. Blood samples were collected from femoral vessels and the serum stored for subsequent RIA of estradiol and progesterone. Coefficients of variation for these assays were: 7.4 and 11.1; and 7.0 and 10.9%, respectively, for within and between assays. The GnRH antagonist (GnRHant) used was Nal-Glu: [Ac-D2NAL, 4ClDPhe^2, D3Pal^3, Arg^5, DGlu^6(AA), DAla^10]-GnRH.
In Part I of the study, the object was to perform a brief dose-finding study that indicated residual serum estradiol levels in intact primates previously illustrating regular menstrual cycles. Specifically sought was an approximation of the minimal daily im dose of Nal-Glu sufficient to suppress circulating estradiol levels into the target range: less than 45 pg/ml but more than 35 pg/ml. Beginning on day 2 of the menstrual cycle, Nal-Glu GnRHant, suspended in sesame oil, was administered between 9 and 10 am in doses of 0.1 (n = 5) and 0.3 mg/kg (n = 6) for 14 days. Femoral blood was obtained daily under ketamine anesthesia. […]

[2] = tested on: ovarian estrogen secretion; test: Part II individualized dose titering: RIA of serum estradiol every 10 days; assay type: in vivo, cynomolgus monkeys
Method: as §1
(§2) After a 60 day wash-out interval, the Part II experimental design had two objectives: 1) attempt to titer the GnRHant dose to individual monkeys so that residual ovarian estrogen secretion was often within the target range (estradiol at 35 to 45 pg/ml) in as many of the blood samples as possible; and 2) perform periodic progesterone challenge tests wherein withdrawal bleeding indicates significant estrogen-induced endometrial proliferation (i.e. excessive estrogenic influence) versus amenorrhea (the absence of progesterone withdrawal bleeding) as an indicator that the GnRHant dose and, in turn, the tonic ovarian estrogen production was indicative of a controlled estrogenic milieu.
(§3) The design was progressive in that all eleven monkeys initially received Nal-Glu GnRHant at 0.05 mg/kg starting on day 2 of the menstrual cycle and continuing daily until results of the progesterone challenge test and estradiol levels in circulation indicated the need to raise the dose. Concurrently, a pair of progesterone-loaded silastic implants were inserted sc during GnRHant treatment from day 20 and 30, and then removed. If withdrawal menses occurred during the next week, the individual Nal-Glu dose was raised to 0.1 mg/kg daily. On GnRHant treatment day 50, the 10 day progesterone challenge test was repeated for all monkeys. Those primates who were amenorrheic remained on this dose of Nal-Glu; any "bleeders" were to be shifted to a higher dose of GnRHant at 0.2 mg/kg daily through treatment day 90, with the final progesterone challenge test given to all monkeys on days 80 to 90. Again, amenorrhea or withdrawal menses was recorded.
Femoral blood samples were collected every 10 days through the study for RIA of estradiol and progesterone.

[3] = tested on: estrogen-induced endometrial proliferation; test: Progesterone challenge test (withdrawal bleeding versus amenorrhea, spotting); assay type: in vivo, cynomolgus monkeys
Method: as §1, §2, §3
For definition, withdrawal bleeding was scored when blood was on the external genitalia for two or more consecutive days within the week following progesterone withdrawal. Spotting was scored when blood was evident only by coloration of the cotton swab upon insertion into the vagina.

in vivo = test: in vivo; set-up: species or system cynomolgus monkeys; settings: cynomolgus monkey, sc
Method: Eleven adult female cynomolgus monkeys having regular and presumably ovulatory menstrual cycles were entered into the study. Body weights were determined monthly. Menstrual bleeding and spotting were recorded daily by visual inspection of external genitalia and insertion of vaginal swabs using a saline moistened cotton-tipped applicator, respectively. Blood samples were collected from femoral vessels and the serum stored for subsequent RIA of estradiol and progesterone. Coefficients of variation for these assays were: 7.4 and 11.1; and 7.0 and 10.9%, respectively, for within and between assays. The GnRH antagonist ([…]) used was Nal-Glu: [[…]. The design was progressive in that all eleven monkeys initially received […] at 0.05 mg/kg starting on day 2 of the menstrual cycle and continuing daily until results of the progesterone challenge test and estradiol levels in circulation indicated the need to raise the dose. Concurrently, a pair of progesterone-loaded silastic implants were inserted sc during […] treatment from day 20 and 30, and then removed. If withdrawal menses occurred during the next week, the individual Nal-Glu dose was raised to 0.1 mg/kg daily. On […] treatment day 50, the 10 day progesterone challenge test was repeated for all monkeys. […] Again, amenorrhea or withdrawal menses was recorded. […]

pituitary-ovarian axis = settings: sufficient single dose; monkeys; cited from earlier work

[Ac-D2NAL, 4ClDPhe^2, D3Pal^3, Arg^5, DGlu^6(AA), DAla^10]-GnRH [Nal-Glu]
serum estradiols [1]: < 25 pg/mL
mean serum estradiol levels ([2]; 0.05 mg/kg im daily, the two primates with withdrawal amenorrhea, target zone 35 to 45 pg/ml): in or near the target zone
estradiol suppression ([2]; 0.2 mg/kg im daily, the lone resistant monkey): under 20 pg/ml
mean circulating estradiol levels ([2]; at third progesterone challenge test, all females except the one given 0.2 mg/kg im daily, target zone 35 to 45 pg/ml): in or near the target zone
mean serum estradiol concentrations ([2]; dose raised to 0.1 mg/kg im daily from day 31, 8 monkeys): approximately 40 pg/ml
monkeys achieving withdrawal amenorrhea ([3]; second progesterone challenge test, only the monkeys raised to 0.1 mg/kg im daily): 8 of 9
Incidence of Spotting ([3]; week of progesterone withdrawal days 31-37): 13 days
Amenorrhea Achieved ([3]; week of progesterone withdrawal days 31-37, first challenge, all eleven monkeys on 0.05 mg/kg im daily): two and 2/11
Incidence of Spotting ([3]; week of progesterone withdrawal days 61-67): 12 days
Amenorrhea Achieved ([3]; week of progesterone withdrawal days 61-67, second challenge, 0.05 or 0.1 mg/kg im daily): 10/11
Incidence of Spotting ([3]; week of progesterone withdrawal days 91-97): 0 days
Amenorrhea Achieved ([3]; week of progesterone withdrawal days 91-97, third challenge, 0.05, 0.1 or 0.2 mg/kg im daily): eleven and 11/11

CC(=O)[C@H]1CC[C@H]2[C@@H]3CCC4=CC(=O)CC[C@]4(C)[C@H]3CC[C@]12C [progesterone]
concentration at 240 h (in vivo): 6.4 ± 0.6 ng/mL

D-Ac-D-2-Nal^1-DpClPhe^2-D-3-Pal^3-Ser^4-NiLys^5-D-NicLys^6-Leu^7-ILys^8-Pro^9-D-Ala^10 [antide]
effect on the pituitary-ovarian axis (pituitary-ovarian axis): immediate and sustained inhibition of the pituitary-ovarian axis
